The text below walks through data of ChEMBL document CHEMBL4483862, “Open-source discovery of chemical leads for next-generation chemoprotective antimalarials” (2018).

pIC50: −log10 of the molar value. Some results are limits rather than exact numbers.

The assay has as its system Plasmodium berghei. Description: Luciferase/luciferin-expressing antifolate-resistant parasites were used to infect a culture of HepG2 cells that were pre-incubated with compounds. Infected hepatocytes emit light due to the luciferase reaction. Assay results are presented as the percent inhibition of light emission compared to control. […]. The format is functional. Conditions: sporozoite; for IC90: read-out: LUCIFERASE INFECTION ASSAY - IC90.

Setting [1] is: read-out: LUCIFERASE INFECTION ASSAY - IC50.

Turning to `Cc1c(OCC(=O)NCc2ccccn2)ccc2c1oc(=O)c1ccccc12`, the IC90 was above 8.81 µM. Besides, the pIC50 (FFLUC_HILL_SLOPE 12.1, FFLUC_R_SQUARED 0.777, PBLUC_HILL_SLOPE 13, PBLUC_R_SQUARED 0.252, read-out: LUCIFERASE INFECTION ASSAY - IC50) was 5.09.
`Cc1noc(C)c1COc1ccc(C(=O)OCC(=O)NC(C)C23CC4CC(CC(C4)C2)C3)cc1` (configuration not stated): the IC90 is above 10 µM. Moreover, under setting [1], the pIC50 is below 5.00.
As to `CCOc1ccc(C(C)=O)cc1Cn1cnc2c(cnn2-c2ccccc2)c1=O`, the IC90 was above 10 µM. Moreover, the pIC50 (FFLUC_HILL_SLOPE 11.6, FFLUC_R_SQUARED 0.166, HEPG2TOX_HILL_SLOPE 1.94, HEPG2TOX_R_SQUARED 0.895, read-out: LUCIFERASE INFECTION ASSAY - IC50) is below 5.00.
In the case of `O=C(Nc1ncccc1O)c1ccc(S(=O)(=O)NCCc2cccs2)cc1`, the IC90 worked out at 0.176 µM. Further, the pIC50 under setting [1] was 6.87.
The corresponding values for `Cc1cccc(NC(=O)c2ccc(Cl)c(S(=O)(=O)N3CCc4ccccc43)c2)n1` are above 10 µM and below 5.00.
As to `Cc1ccc(-c2nc(CSc3nc(C)c(C)n3CC3CCCO3)co2)c(C)c1` (configuration not stated), the IC90 is above 10 µM. In addition, the pIC50 (FFLUC_HILL_SLOPE 1.24, FFLUC_R_SQUARED 0.0904, HEPG2TOX_HILL_SLOPE 3.11, HEPG2TOX_R_SQUARED 0.82, read-out: LUCIFERASE INFECTION ASSAY - IC50) was below 5.00.
For the molecule `Clc1ccc(-c2cnc3cnc(-c4cccs4)cn23)cc1`, the IC90 was 3.99 µM. Further, under “PBLUC_HILL_SLOPE 17.9, PBLUC_R_SQUARED 0.612, read-out: LUCIFERASE INFECTION ASSAY - IC50”, the pIC50 was 5.45.
For the molecule `CC(C)(C)c1ccc(OS(=O)(=O)c2ccc(Oc3c(Cl)cccc3[N+](=O)[O-])cc2)cc1`, the 90% effect concentration (IC90) is above 7.14 µM. In addition, under setting [1], the pIC50 was below 5.15.
Regarding `CC(C)(C)c1ccc(-c2nnc(SCc3ccc([N+](=O)[O-])cc3)n2-c2cccc(C(F)(F)F)c2)cc1`, the IC90 is above 6.44 µM. The pIC50 (FFLUC_HILL_SLOPE 12, FFLUC_R_SQUARED 0.571, HEPG2TOX_HILL_SLOPE 0.228, HEPG2TOX_R_SQUARED 0.238, read-out: LUCIFERASE INFECTION ASSAY - IC50) is below 5.19.
Consider `CCOCCCNC(=O)/C(C#N)=C/c1ccc([N+](=O)[O-])o1`, for which the IC90 was above 10 µM. Besides, the pIC50 (PBLUC_HILL_SLOPE 1.42, PBLUC_R_SQUARED 0.135, read-out: LUCIFERASE INFECTION ASSAY - IC50) is below 5.00.
With `COc1cc(C(=O)c2c(-c3ccccc3)cc3ccccn23)cc(OC)c1OC`, the IC90 amounted to 0.409 µM. In addition, the pIC50 (HEPG2TOX_HILL_SLOPE 0.582, HEPG2TOX_R_SQUARED 0.857, PBLUC_HILL_SLOPE 12.9, PBLUC_R_SQUARED 0.72, read-out: LUCIFERASE INFECTION ASSAY - IC50) is 6.46.
Regarding `CCCOc1ccc(C(F)(F)F)cc1NC(=O)c1nc2nccc(C)n2n1`, the IC90 was found to be 3 µM. Besides, under “PBLUC_HILL_SLOPE 0.895, PBLUC_R_SQUARED 0.844, read-out: LUCIFERASE INFECTION ASSAY - IC50”, the pIC50 is 6.59.
With `FC(F)(F)Oc1cccc(-c2cnc3cnc(-c4cccnc4)cn23)c1`, the IC90 is above 9.26 µM. Also, the pIC50 (PBLUC_HILL_SLOPE 14.8, PBLUC_R_SQUARED 0.205, read-out: LUCIFERASE INFECTION ASSAY - IC50) was 5.06.
`CN(C)S(=O)(=O)c1cccc(C(=O)Nc2cnc3ccccc3c2)c1`: the IC90 is above 10 µM. In addition, the pIC50 (PBLUC_HILL_SLOPE 0.341, PBLUC_R_SQUARED 0.599, read-out: LUCIFERASE INFECTION ASSAY - IC50) was 6.48.
Turning to `CCOC(=O)c1sc(SCc2ccc(Cl)cc2)c2c1CCCC2=O`, the IC90 was above 8.66 µM. For the same molecule, the pIC50 (FFLUC_HILL_SLOPE 175, FFLUC_R_SQUARED 0.438, PBLUC_HILL_SLOPE 6.18, PBLUC_R_SQUARED 0.111, read-out: LUCIFERASE INFECTION ASSAY - IC50) was below 5.06.
Take `CCOc1ccc(OCC)c(NC(=O)/C=C/c2ccc(OCc3cn4ccccc4n3)cc2)c1`: the IC90 was above 10 µM. Also, the pIC50 (PBLUC_HILL_SLOPE 4.17, PBLUC_R_SQUARED 0.3, read-out: LUCIFERASE INFECTION ASSAY - IC50) was 5.05.
For the molecule `Cc1cc(O)c(C(C)C)cc1NC1=NC(=O)S/C1=C\c1cc(Cl)ccc1OCC(=O)Nc1ccc(Cl)cc1`, the IC90 is 3.24 µM. For the same molecule, under setting [1], the pIC50 was 5.53.
Consider `Cc1nc2ncnn2c(N2CCc3ccccc3C2)c1Cl`, for which the IC90 amounted to 6.09 µM. The pIC50 (FFLUC_HILL_SLOPE 16.4, FFLUC_R_SQUARED 0.0433, HEPG2TOX_HILL_SLOPE 1.21, HEPG2TOX_R_SQUARED 0.855, PBLUC_HILL_SLOPE 2.02, PBLUC_R_SQUARED 0.689, read-out: LUCIFERASE INFECTION ASSAY - IC50) was 5.69.
Turning to `Cc1c(-c2ccccc2)sc2[nH]c(SC(C(=O)c3ccccc3)c3ccccc3)nc(=O)c12` (configuration not stated), the IC90 is above 10 µM. In addition, the pIC50 (HEPG2TOX_HILL_SLOPE 4.76, HEPG2TOX_R_SQUARED 0.813, PBLUC_HILL_SLOPE 2.74, PBLUC_R_SQUARED 0.111, read-out: LUCIFERASE INFECTION ASSAY - IC50) is 5.17.
On to `COc1c(Cl)cc(Cl)c(OC)c1C(=O)NC(=O)Nc1cc(C(F)(F)F)cc(C(F)(F)F)c1`, for which the IC90 stood at 2.23 µM. For the same molecule, the pIC50 under setting [1] is 5.69.
With `Fc1ccc(-c2nc3ccccc3n2-c2cc(-c3ccccc3)n[nH]2)cc1`, the IC90 was 5.27 µM. Moreover, the pIC50 (PBLUC_HILL_SLOPE 1.15, 2.25, PBLUC_R_SQUARED 0.601, 0.956, read-out: LUCIFERASE INFECTION ASSAY - IC50) is 5.80.
Regarding `CSc1ncc2c(n1)CC(C)(C)C/C2=N\OC(=O)c1cccc(C(F)(F)F)c1`, the IC90 is above 8.06 µM. Also, the pIC50 under setting [1] is below 5.09.
The corresponding values for `COc1cccc(C(=O)Nc2cccc(Nc3ccc(-c4cc(OC)c(OC)c(OC)c4)cn3)c2)c1` are above 6.8 µM and below 5.17.
With `Cc1cccc(C(=O)Nc2nc3ccc(C)cn3c2C(=O)NC2CCCC2)c1`, the IC90 amounted to 7.46 µM. The pIC50 (PBLUC_HILL_SLOPE 3.54, PBLUC_R_SQUARED 0.461, read-out: LUCIFERASE INFECTION ASSAY - IC50) is 5.40.
Regarding `CN(C)CCCN1C(=O)N(CCc2ccccc2)C2(CCN(Cc3cn(C)c4ccccc34)CC2)C1=O`, the IC90 is 6.2 µM. In addition, the pIC50 (HEPG2TOX_HILL_SLOPE 17.2, HEPG2TOX_R_SQUARED 0.602, PBLUC_HILL_SLOPE 5.41, PBLUC_R_SQUARED 0.643, read-out: LUCIFERASE INFECTION ASSAY - IC50) was 5.38.
Turning to `Cc1ccc(Cl)cc1NC(=S)N/N=C\c1cccc2ccccc12`, the IC90 was 1.85 µM. For the same molecule, under setting [1], the pIC50 is 6.09.

Broadly, the pIC50 is the IC50 on a negative log10 scale, so that one unit is a factor of ten. The IC90 is the concentration at which the effect reaches the 90% level.
